According to patent US20240174618A1, “SUBSTITUTED (2-HETEROARYLOXYPHENYL)SULFONATES, SALTS THEREOF AND THEIR USE AS HERBICIDAL AGENTS” (Bayer Aktiengesellschaft, priority 2021, published 2024):

Legend:
Type in all cases: in vivo
[1] = tested on: Lolium rigidum (LOLRI); assay: B. Herbicidal post-emergence efficacy, LOLRI
Experimental: (§1) Seeds of mono- and dicotyledonous weed plants were placed in plastic pots in sandy loam soil (doubly sown with in each case one species of mono- or dicotyledonous weed plants per pot), covered with soil and cultivated in a greenhouse under controlled growth conditions. 2 to 3 weeks after sowing, the test plants were treated at the one-leaf stage. The compounds of the invention, formulated in the form of wettable powders (WP) or as emulsion concentrates (EC), were applied onto the green parts of the plants as aqueous suspension or emulsion with addition of 0.5% additive at a water application rate of 600 liters per hectare (converted). After the test plants had been kept in the greenhouse under optimum growth conditions for about 3 weeks, the activity of the preparations was rated visually in comparison to untreated controls.
(§2) For example, • 100% efficacy=plants have died, • 0% efficacy=like untreated control plants
(§3) Tables B1a to B12c below show the effects of selected inventive compounds of the general formula (I) according to table 1 on various harmful plants at an application rate corresponding to 1280 g/ha or less, which were obtained by the experimental procedure mentioned above.

[2] = tested on: Oryza sativa (ORYSA); assay: F. Post-emergence effect on useful plants, ORYSA; settings: useful plant
Experimental: (§4) Seeds of monocotyledonous and dicotyledonous weeds and crop plants were placed in sandy loam in plastic or organic planting pots, covered with soil and cultivated in a greenhouse under controlled growth conditions. 2 to 3 weeks after sowing, the test plants were treated at the one-leaf stage. The compounds of the invention, formulated in the form of wettable powders (WP) or as emulsion concentrates (EC), were then sprayed onto the green parts of the plants as aqueous suspension or emulsion with addition of 0.5% additive at a water application rate of 600 l/ha (converted). After the test plants had been kept in the greenhouse under optimum growth conditions for about 3 weeks, the activity of the preparations was rated visually in comparison to untreated controls.
(§5) For example, • 100% efficacy=plants have died, • 0% action=like untreated control plants.
(§6) Tables F1a to F4 below show the effects of selected compounds of the general formula (I) according to table 1 on various useful plants at an application rate corresponding to 320 g/ha or less, which were obtained by the experimental procedure mentioned above.

[3] = tested on: Oryza sativa (ORYSA); assay: D. Pre-emergence effect on useful plants, ORYSA; settings: useful plant
Source text: (§7) Seeds of monocotyledonous and dicotyledonous weed plants and crop plants were placed in plastic or organic planting pots and covered with soil. The compounds of the invention, formulated in the form of wettable powders (WP) or as emulsion concentrates (EC), were then applied to the surface of the covering soil as aqueous suspension or emulsion with addition of 0.5% additive at a water application rate equivalent to 600 l/ha (converted). After the treatment, the pots were placed in a greenhouse and kept under good growth conditions for the test plants. After about 3 weeks, the efficacy of the preparations was scored visually in comparison with untreated controls as percentages. For example, • 100% efficacy=plants have died, • 0% efficacy=like untreated control plants.
(§8) Tables D1a to D5b below show the effects of selected compounds of the general formula (I) according to table 1 on various useful plants at an application rate corresponding to 320 g/ha or less, which were obtained by the experimental procedure mentioned above.

[4] = tested on: Matricaria inodora (MATIN); assay: B. Herbicidal post-emergence efficacy, MATIN
Experimental: as §1, §2, §3

[5] = tested on: Lolium rigidum (LOLRI); assay: E. Herbicidal post-emergence efficacy, LOLRI
Experimental: as §4, §5
Tables E1a to E12b below show the effects of selected compounds of the general formula (I) according to table 1 on various harmful plants at an application rate corresponding to 320 g/ha or less, which were obtained by the experimental procedure mentioned above.

[6] = tested on: Glycine max (GLXMA); assay: D. Pre-emergence effect on useful plants, GLXMA; settings: useful plant
Source text: as §7, §8

[7] = tested on: Glycine max (GLXMA); assay: F. Post-emergence effect on useful plants, GLXMA; settings: useful plant, application rate 80 g/ha
Experimental: as §4, §5, §6

[8] = tested on: Brassica napus (BRSNW); assay: D. Pre-emergence effect on useful plants, BRSNW; settings: useful plant
Source text: as §7, §8

Compound	Post-emergence efficacy against LOLRI ([1]; 1280 g/ha)	Post-emergence efficacy against ORYSA in % ([2]; application rate 80 g/ha)	Post-emergence efficacy against LOLRI in % ([5]; application rate 320 g/ha)	further results
O=S(=O)(CCCCl)Oc1ccccc1Oc1ncc(Cl)cn1 [Example I-2]	90%	0%		
CCCS(=O)(=O)Oc1ccccc1Oc1ncc(Cl)cn1 [Example I-3]		10%		Pre-emergence efficacy against ORYSA in % ([3]; application rate 80 g/ha): 20%
O=S(=O)(CCCCl)Oc1ccccc1Oc1ncc(F)cn1 [Example I-5]		20%	90%	Post-emergence efficacy against MATIN ([4]; 1280 g/ha): 90%
O=S(=O)(CCC(F)(F)F)Oc1ccccc1Oc1ncc(Cl)cn1 [Example I-8]	90%	20%	80%	
O=S(=O)(CCl)Oc1ccccc1Oc1ncc(Cl)cn1 [Example I-9]		10%		Pre-emergence efficacy against ORYSA in % ([3]; application rate 80 g/ha): 0%; Post-emergence efficacy against ORYSA in % ([2]; application rate 320 g/ha): 10%
O=S(=O)(CCCC(F)(F)F)Oc1ccccc1Oc1ncc(Cl)cn1 [Example I-10]	100%		90%	Post-emergence efficacy against LOLRI ([1]; 320 g/ha): 90%
Cc1cccc(OS(=O)(=O)CCCCl)c1Oc1ncc(Cl)cn1 [Example I-12]	90%			Post-emergence efficacy against LOLRI ([1]; 320 g/ha): 90%
O=S(=O)(CCCCl)Oc1cccc(F)c1Oc1ncc(Cl)cn1 [Example I-13]		10%		Pre-emergence efficacy against ORYSA in % ([3]; application rate 80 g/ha): 10%; Pre-emergence efficacy against GLXMA in % ([6]; application rate 80 g/ha): 10%; Pre-emergence efficacy against GLXMA in % ([6]; application rate 320 g/ha): 20%; Post-emergence efficacy against GLXMA in % [7]: 10%
O=S(=O)(CCCCl)Oc1c(F)cccc1Oc1ncc(Cl)cn1 [Example I-14]	100%			
O=S(=O)(CCCCCl)Oc1ccccc1Oc1ncc(Cl)cn1 [Example I-15]	90%	0%		Post-emergence efficacy against LOLRI ([1]; 320 g/ha): 90%; Post-emergence efficacy against ORYSA in % ([2]; application rate 320 g/ha): 20%
O=S(=O)(CC1CC1)Oc1ccccc1Oc1ncc(Cl)cn1 [Example I-23]		0%		
CCCCCS(=O)(=O)Oc1ccccc1Oc1ncc(Cl)cn1 [Example I-24]	90%	0%		Pre-emergence efficacy against ORYSA in % ([3]; application rate 80 g/ha): 0%; Pre-emergence efficacy against ORYSA in % ([3]; application rate 320 g/ha): 20%; Pre-emergence efficacy against BRSNW in % ([8]; application rate 80 g/ha): 0%; Pre-emergence efficacy against BRSNW in % ([8]; application rate 320 g/ha): 0%; Post-emergence efficacy against ORYSA in % ([2]; application rate 320 g/ha): 0%
CC(C)CCS(=O)(=O)Oc1ccccc1Oc1ncc(Cl)cn1 [Example I-25]	90%	0%		Pre-emergence efficacy against ORYSA in % ([3]; application rate 80 g/ha): 0%; Pre-emergence efficacy against GLXMA in % ([6]; application rate 80 g/ha): 0%
Cc1cccc(Oc2ncc(Cl)cn2)c1OS(=O)(=O)CCC(F)(F)F [Example I-29]	90%			
O=S(=O)(CCC(F)(F)F)Oc1c(Cl)cccc1Oc1ncc(Br)cn1 [Example I-32]	90%			Pre-emergence efficacy against GLXMA in % ([6]; application rate 80 g/ha): 0%; Pre-emergence efficacy against GLXMA in % ([6]; application rate 320 g/ha): 0%
O=S(=O)(CCCC(F)(F)F)Oc1c(Cl)cccc1Oc1ncc(Br)cn1 [Example I-34]				Pre-emergence efficacy against GLXMA in % ([6]; application rate 80 g/ha): 0%
C=CCS(=O)(=O)Oc1ccccc1Oc1ncc(Cl)cn1 [Example I-36]				Pre-emergence efficacy against GLXMA in % ([6]; application rate 80 g/ha): 0%

Compound	Post-emergence efficacy against LOLRI ([1]; 1280 g/ha)	Post-emergence efficacy against ORYSA in % ([2]; application rate 80 g/ha)	Post-emergence efficacy against LOLRI in % ([5]; application rate 320 g/ha)	further results
O=S(=O)(CCC(F)(F)F)Oc1c(Cl)cccc1Oc1ncc(Cl)cn1 [Example I-38]	90%			
O=S(=O)(CCCC(F)(F)F)Oc1c(F)cccc1Oc1ncc(Br)cn1 [Example I-41]	90%			
O=S(=O)(CCCC(F)(F)F)Oc1c(F)cccc1Oc1ncc(F)cn1 [Example I-42]			100%	Post-emergence efficacy against LOLRI in % ([5]; application rate 80 g/ha): 80%
O=S(=O)(CCC(F)(F)F)Oc1c(F)cccc1Oc1ncc(F)cn1 [Example I-47]			100%	
O=S(=O)(CCC(F)(F)F)Oc1c(F)cccc1Oc1ncc(Cl)cn1 [Example I-48]	90%		90%	Post-emergence efficacy against LOLRI ([1]; 320 g/ha): 90%
O=S(=O)(CCCC(F)(F)F)Oc1c(F)cccc1Oc1ncc(Cl)cn1 [Example I-49]	90%		80%	
C=CCCS(=O)(=O)Oc1c(F)cccc1Oc1ncc(Cl)cn1 [Example I-50]				Post-emergence efficacy against MATIN ([4]; 1280 g/ha): 90%
COCCS(=O)(=O)Oc1c(F)cccc1Oc1ncc(Cl)cn1 [Example I-52]	90%			
O=S(=O)(CC1CC(F)(F)C1)Oc1c(F)cccc1Oc1ncc(Cl)cn1 [Example I-53]	90%		100%	Post-emergence efficacy against LOLRI in % ([5]; application rate 80 g/ha): 80%
O=S(=O)(CCC1CC1)Oc1c(F)cccc1Oc1ncc(Cl)cn1 [Example I-55]			80%	Pre-emergence efficacy against GLXMA in % ([6]; application rate 80 g/ha): 10%
O=S(=O)(CCCC(F)F)Oc1c(F)cccc1Oc1ncc(Cl)cn1 [Example I-56]				Post-emergence efficacy against MATIN ([4]; 320 g/ha): 90%; Post-emergence efficacy against MATIN ([4]; 1280 g/ha): 90%
O=S(=O)(CC1CC1(Cl)Cl)Oc1c(F)cccc1Oc1ncc(Cl)cn1 (stereo not drawn) [Example I-57]				Post-emergence efficacy against MATIN ([4]; 320 g/ha): 90%; Post-emergence efficacy against MATIN ([4]; 1280 g/ha): 90%
O=S(=O)(CCCC(F)(F)C(F)(F)F)Oc1c(F)cccc1Oc1ncc(Cl)cn1 [Example I-68]				Pre-emergence efficacy against GLXMA in % ([6]; application rate 80 g/ha): 10%
O=S(=O)(CCC(F)=C(F)F)Oc1c(Cl)cccc1Oc1ncc(Cl)cn1 [Example I-73]	90%			
Cc1cccc(Oc2ncc(Cl)cn2)c1OS(=O)(=O)CC1CC(F)(F)C1 [Example I-74]	100%			
N#Cc1cccc(Oc2ncc(Cl)cn2)c1OS(=O)(=O)CCCC(F)(F)F [Example I-81]			80%	Pre-emergence efficacy against GLXMA in % ([6]; application rate 80 g/ha): 0%
